Measured values as given in patent US20220233512A1, “INHIBITING AN IMMUNE RESPONSE MEDIATED BY ONE OR MORE OF TLR2, RAGE, CCR5, CXCR4 AND CD4” (priority 2020, published 2022).

Tests used:
[1] = biological target: T1, biotinylated FLNA pentapeptide of positions 2561-2565 (Homo sapiens, UniProt P21333); experiment: FITC-NLX-based FLNA screening assay; type: binding; conditions: for Percent inhibition of FITC-NLX binding (preliminary study): 100 nM frozen-stored FITC-NLX, average of two runs
T1 construct: the biotinylated FLNA pentapeptide of positions 2561-2565
Protocol: [50 ml of the peptide solution from B+50 ml binding medium, final concentration for DMSO: 0.5%].
The final assay volume is 100 ml.
The final screening concentration for each new compound is initially 10 mM.
Compounds are tested in triplicate or quadruplicate.

[2] = biological target: T2, mu opiate receptor (MOR) (Rattus norvegicus, UniProt P33535); experiment: MOR agonist activity using [35S]GTPgS binding assay in striatal membranes; type: biochemical; set-up: MOR agonist activity (preliminary study): unit of the concentration uncertain; conditions: for MOR agonist activity (preliminary study): average of two runs
T2 construct: from tissue; host or cells: striatum (membrane preparation)
T2 sequence (P33535 whole entry): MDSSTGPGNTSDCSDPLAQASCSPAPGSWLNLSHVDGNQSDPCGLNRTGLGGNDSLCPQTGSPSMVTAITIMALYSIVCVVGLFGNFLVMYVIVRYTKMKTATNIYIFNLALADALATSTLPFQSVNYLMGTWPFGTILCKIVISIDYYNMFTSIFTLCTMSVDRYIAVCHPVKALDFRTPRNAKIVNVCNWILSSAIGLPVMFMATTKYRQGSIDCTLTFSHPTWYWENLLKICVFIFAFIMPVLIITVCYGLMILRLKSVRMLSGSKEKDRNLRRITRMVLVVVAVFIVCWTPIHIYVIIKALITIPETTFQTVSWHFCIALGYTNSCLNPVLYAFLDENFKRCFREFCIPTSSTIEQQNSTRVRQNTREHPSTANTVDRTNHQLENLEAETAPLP
Outline: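 Rat striatal membranes incubated 5 min at 30 °C in pH 7.5 HEPES buffer with 100 mM NaCl, 1 mM MgCl2 and 0.5 nM [35S]GTPgS, then 5 min with compound. Gαo-bound [35S]GTPgS isolated by immunoprecipitation and counted by liquid scintillation.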

[3] = biological target: FLNA interactions with CXCR4, CD4 and CCR5 (Homo sapiens, UniProt P21333); experiment: FLNA interactions with CXCR4, CD4 and CCR5 in lymphocytes (western blot); conditions: 1 nM; lymphocytes of Ab42-treated young control subject and of AD patient
Sequence of FLNA interactions with CXCR4, CD4 and CCR5 (P21333 2-2647 limits assumed): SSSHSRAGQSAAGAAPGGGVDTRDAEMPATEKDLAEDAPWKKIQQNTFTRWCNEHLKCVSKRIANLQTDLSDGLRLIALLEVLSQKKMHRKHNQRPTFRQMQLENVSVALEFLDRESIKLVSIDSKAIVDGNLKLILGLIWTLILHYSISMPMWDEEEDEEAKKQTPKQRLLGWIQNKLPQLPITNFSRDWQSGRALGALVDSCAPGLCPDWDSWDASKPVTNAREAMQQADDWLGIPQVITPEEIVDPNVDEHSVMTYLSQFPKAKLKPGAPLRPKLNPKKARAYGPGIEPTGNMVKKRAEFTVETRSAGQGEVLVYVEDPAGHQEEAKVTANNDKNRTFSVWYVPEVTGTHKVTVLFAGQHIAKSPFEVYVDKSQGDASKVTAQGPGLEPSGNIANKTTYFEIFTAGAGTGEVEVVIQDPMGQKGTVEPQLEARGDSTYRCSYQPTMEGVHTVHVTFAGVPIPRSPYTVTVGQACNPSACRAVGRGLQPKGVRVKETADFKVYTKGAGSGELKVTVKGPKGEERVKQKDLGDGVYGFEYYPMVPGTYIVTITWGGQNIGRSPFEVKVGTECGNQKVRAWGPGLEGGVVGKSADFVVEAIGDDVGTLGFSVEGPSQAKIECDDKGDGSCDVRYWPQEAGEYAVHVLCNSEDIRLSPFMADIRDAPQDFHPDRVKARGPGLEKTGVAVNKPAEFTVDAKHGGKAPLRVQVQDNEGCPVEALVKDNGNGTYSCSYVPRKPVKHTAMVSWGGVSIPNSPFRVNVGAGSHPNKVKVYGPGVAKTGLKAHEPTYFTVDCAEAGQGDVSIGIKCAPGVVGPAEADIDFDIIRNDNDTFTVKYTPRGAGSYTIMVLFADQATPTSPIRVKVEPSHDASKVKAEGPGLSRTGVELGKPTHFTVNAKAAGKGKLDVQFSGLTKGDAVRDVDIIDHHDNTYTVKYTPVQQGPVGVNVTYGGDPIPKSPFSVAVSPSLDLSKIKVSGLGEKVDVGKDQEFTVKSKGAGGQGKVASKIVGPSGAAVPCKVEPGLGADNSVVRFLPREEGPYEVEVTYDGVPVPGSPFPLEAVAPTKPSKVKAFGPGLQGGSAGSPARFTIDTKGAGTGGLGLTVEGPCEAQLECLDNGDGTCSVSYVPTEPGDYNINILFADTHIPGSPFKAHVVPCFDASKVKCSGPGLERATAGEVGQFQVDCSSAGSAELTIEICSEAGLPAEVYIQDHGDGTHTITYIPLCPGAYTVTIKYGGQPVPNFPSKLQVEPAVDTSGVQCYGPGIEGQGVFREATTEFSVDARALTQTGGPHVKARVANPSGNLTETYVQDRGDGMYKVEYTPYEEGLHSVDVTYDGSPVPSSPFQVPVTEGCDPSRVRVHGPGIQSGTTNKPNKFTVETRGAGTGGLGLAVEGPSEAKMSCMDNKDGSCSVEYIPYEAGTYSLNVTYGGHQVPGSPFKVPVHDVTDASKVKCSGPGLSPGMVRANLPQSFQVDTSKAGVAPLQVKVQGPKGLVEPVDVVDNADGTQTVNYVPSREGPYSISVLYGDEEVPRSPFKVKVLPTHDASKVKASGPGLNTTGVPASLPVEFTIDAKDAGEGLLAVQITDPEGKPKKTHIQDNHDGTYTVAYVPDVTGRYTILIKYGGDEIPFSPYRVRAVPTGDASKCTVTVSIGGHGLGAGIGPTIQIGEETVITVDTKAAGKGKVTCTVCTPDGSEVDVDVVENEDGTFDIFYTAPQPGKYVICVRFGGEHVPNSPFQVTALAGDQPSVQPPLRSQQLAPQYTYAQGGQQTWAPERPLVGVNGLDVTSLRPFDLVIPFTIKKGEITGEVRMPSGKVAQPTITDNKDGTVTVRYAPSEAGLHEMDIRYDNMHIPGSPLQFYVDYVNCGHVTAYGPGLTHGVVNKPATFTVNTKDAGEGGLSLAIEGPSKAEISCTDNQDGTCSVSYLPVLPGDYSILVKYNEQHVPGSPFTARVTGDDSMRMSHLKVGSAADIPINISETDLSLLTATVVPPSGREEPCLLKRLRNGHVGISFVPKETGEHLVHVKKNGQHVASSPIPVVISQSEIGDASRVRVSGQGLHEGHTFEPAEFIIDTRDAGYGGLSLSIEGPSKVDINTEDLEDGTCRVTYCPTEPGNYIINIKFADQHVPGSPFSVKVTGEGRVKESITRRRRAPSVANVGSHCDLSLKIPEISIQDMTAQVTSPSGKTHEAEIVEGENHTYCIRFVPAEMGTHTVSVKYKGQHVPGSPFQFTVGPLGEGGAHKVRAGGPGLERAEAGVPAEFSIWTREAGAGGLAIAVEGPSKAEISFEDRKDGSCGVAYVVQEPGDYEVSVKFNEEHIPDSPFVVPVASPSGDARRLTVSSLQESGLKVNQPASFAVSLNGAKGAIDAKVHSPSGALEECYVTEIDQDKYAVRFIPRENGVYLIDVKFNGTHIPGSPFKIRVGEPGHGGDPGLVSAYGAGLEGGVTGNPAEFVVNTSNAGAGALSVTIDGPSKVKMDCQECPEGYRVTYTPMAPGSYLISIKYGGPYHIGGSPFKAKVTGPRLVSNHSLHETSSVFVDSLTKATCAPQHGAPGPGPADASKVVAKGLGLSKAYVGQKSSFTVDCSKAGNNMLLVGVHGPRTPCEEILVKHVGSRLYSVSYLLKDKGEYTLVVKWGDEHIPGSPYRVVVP

[4] = 0.1 μM compound as agonist, Series C-1 table
[5] = 1 μM compound as agonist, Series C-1 table
[6] = 0.1 μM compound as agonist, Series C-2 table
[7] = 1 μM compound as agonist, Series C-2 table

Row | Compound | MOR agonist activity ([35S]GTPgS binding to Gao) [2, 4] [%] | MOR agonist activity ([35S]GTPgS binding to Gao) ([2]; 1 μM + BFNA, Series C-1 table) [%] | MOR agonist activity ([35S]GTPgS binding to Gao) [2, 5] [%] | MOR agonist activity ([35S]GTPgS binding to Gao) [2, 6] [%] | MOR agonist activity ([35S]GTPgS binding to Gao) ([2]; 1 μM + BFNA, Series C-2 table) [%] | MOR agonist activity ([35S]GTPgS binding to Gao) [2, 7] [%] | other results
1 | C=CCN1CC[C@]23c4c5ccc(O)c4O[C@H]2C(=O)CC[C@]3(O)[C@H]1C5 [(+) NLX] | – | – | – | – | – | – | Percent inhibition of FITC-NLX binding (preliminary study) ([1]; 0.1 nM compound): 22.7%; Percent inhibition of FITC-NLX binding (preliminary study) ([1]; 1 nM compound): 22.8%; Percent inhibition of FITC-NLX binding (preliminary study) ([1]; 10 nM compound): 23.1%; Percent inhibition of FITC-NLX binding (preliminary study) ([1]; 100 nM compound): 22.8%; Percent inhibition of FITC-NLX binding (preliminary study) ([1]; 1 mM compound): 39.8%
2 | Nc1ccc(C(=O)N2CCC3(CC2)OCCN3S(=O)(=O)c2ccc(N)cc2)cc1 [Compound C0023] | 153.2 | 23.2 | 233.7 | – | – | – | inhibition at 0.01 µM ([1]; 0.01 μM compound, C-Series-1 table, 10 nM FITC-NLX, read-out: Percent Binding Inhibition): 35.9%; inhibition at 0.1 µM ([1]; 0.1 μM compound, C-Series-1 table, 10 nM FITC-NLX, read-out: Percent Binding Inhibition): 41.7%; inhibition at 1 µM ([1]; 1 μM compound, C-Series-1 table, 10 nM FITC-NLX, read-out: Percent Binding Inhibition): 47.2%
3 | O=C1CNC2(CCN(S(=O)(=O)c3ccc(O)cc3)CC2)N1Cc1ccccc1 [Compound C0148M] | 181.3 | 87.6 | 360.6 | – | – | – | % DAMGO + BFNA ([2]; relative to DAMGO + BFNA, Series C-1 table): 95.9%; % DAMGO (0.1 μM) ([2]; relative to DAMGO at 0.1 μM, Series C-1 table): 105.4%; % DAMGO (1 μM) ([2]; relative to DAMGO at 1 μM, Series C-1 table): 110.6%
4 | O=S(=O)(c1ccccc1Oc1ccccc1)N1CCC2(CC1)NCCO2 [Compound C0149M-2] | – | – | – | 209.8 | 93.4 | 406.7 | –
5 | O=S(=O)(c1ccc(Oc2ccccc2)cc1)N1CCC2(CC1)OCCN2S(=O)(=O)c1ccc(Oc2ccccc2)cc1 [Compound C0149M] | 209.8 | 93.4 | 406.7 | – | – | – | –
6 | O=S(=O)(c1csc2ccccc12)N1CCC2(CC1)OCCN2S(=O)(=O)c1csc2ccccc12 [Compound C0150M] | 167.1 | 93.4 | 423.1 | – | – | – | –
7 | COc1ccc(NC(=O)N2CCC3(CC2)NCCO3)cc1 [Compound C0151M-2] | – | – | – | 346.8 | 212.8 | 397.6 | –
8 | COc1ccc(NC(=O)N2CCC3(CC2)OCCN3C(=O)Nc2ccc(OC)cc2)cc1 [Compound C0151M] | 346.8 | 212.8 | 397.6 | – | – | – | –
9 | C[C@@H](NC(=O)[C@@H](N)Cc1ccc(O)cc1)C(=O)NCC(=O)N(C)[C@@H](Cc1ccccc1)C(=O)NCCO [DAMGO, [D-Ala2, N-MePhe4, Gly-ol]-enkephalin, reference compound] | 168.5 | 53.2 | 266.1 | 168.5 | 53.2 | 266.1 | MOR agonist activity (preliminary study) ([2]; 1 mM + bNFA): 56.8%; MOR agonist activity (preliminary study) ([2]; 0.1 (unit uncertain) compound as agonist): 144.7%; MOR agonist activity (preliminary study) ([2]; 1 (unit uncertain) compound as agonist): 233.4%
10 | C=CCN1CC[C@]23c4c5ccc(O)c4O[C@H]2C(=O)CC[C@@]3(O)[C@H]1C5 [Naloxone, naloxone, reference compound] | – | – | – | – | – | – | FLNA linkages with CXCR4, CD4 and CCR5 (in words) [3]: reduced these linkages
11 | COc1ccc(S(=O)(=O)N2CCSC23CCNCC3)cc1 [S-C0027] | – | – | – | 156.2 | 56.2 | 286.8 | –
